Experiments:
[1] = species on record: Homo sapiens; experiment: Selectivity ratio of Ki for JAK2 (unknown origin) to Ki for TYK2 (unknown origin)
[2] = target: Tyrosine-protein kinase JAK1 (Homo sapiens, UniProt P23458); experiment: Inhibition of JAK1 (unknown origin)
[3] = target: T1, Tyrosine-protein kinase JAK3 (Homo sapiens, UniProt P52333); experiment: Inhibition of JAK3 (unknown origin)
T1 sequence (P52333 whole entry): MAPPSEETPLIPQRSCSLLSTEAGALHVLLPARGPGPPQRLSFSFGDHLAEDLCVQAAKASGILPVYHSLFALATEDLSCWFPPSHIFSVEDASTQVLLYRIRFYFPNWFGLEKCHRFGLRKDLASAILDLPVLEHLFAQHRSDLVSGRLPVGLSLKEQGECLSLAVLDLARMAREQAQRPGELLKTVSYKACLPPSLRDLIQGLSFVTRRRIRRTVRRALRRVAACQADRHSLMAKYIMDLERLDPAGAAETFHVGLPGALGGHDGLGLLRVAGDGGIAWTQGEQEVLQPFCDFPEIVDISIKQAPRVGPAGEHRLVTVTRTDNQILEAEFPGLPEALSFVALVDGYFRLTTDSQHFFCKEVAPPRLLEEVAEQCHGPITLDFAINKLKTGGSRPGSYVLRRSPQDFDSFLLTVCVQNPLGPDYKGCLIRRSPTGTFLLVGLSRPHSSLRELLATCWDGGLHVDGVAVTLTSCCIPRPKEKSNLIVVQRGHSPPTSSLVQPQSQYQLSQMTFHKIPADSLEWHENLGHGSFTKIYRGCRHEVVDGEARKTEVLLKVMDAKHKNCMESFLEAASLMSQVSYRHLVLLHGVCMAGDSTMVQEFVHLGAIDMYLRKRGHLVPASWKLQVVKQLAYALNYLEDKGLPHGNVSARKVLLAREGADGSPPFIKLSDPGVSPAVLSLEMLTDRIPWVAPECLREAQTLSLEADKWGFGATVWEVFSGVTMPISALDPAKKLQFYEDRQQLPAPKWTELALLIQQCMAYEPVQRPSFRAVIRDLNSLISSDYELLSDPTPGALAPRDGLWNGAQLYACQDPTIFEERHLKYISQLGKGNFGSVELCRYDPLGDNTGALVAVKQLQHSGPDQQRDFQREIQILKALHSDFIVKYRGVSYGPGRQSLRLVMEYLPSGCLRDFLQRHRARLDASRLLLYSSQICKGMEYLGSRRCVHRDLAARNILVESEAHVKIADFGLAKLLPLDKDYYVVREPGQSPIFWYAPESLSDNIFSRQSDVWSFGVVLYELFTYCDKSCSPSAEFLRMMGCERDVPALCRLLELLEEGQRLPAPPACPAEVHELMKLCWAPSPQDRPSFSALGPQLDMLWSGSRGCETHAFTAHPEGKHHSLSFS

Chain of Tyrosine-protein kinase JAK1 (P23458 whole entry): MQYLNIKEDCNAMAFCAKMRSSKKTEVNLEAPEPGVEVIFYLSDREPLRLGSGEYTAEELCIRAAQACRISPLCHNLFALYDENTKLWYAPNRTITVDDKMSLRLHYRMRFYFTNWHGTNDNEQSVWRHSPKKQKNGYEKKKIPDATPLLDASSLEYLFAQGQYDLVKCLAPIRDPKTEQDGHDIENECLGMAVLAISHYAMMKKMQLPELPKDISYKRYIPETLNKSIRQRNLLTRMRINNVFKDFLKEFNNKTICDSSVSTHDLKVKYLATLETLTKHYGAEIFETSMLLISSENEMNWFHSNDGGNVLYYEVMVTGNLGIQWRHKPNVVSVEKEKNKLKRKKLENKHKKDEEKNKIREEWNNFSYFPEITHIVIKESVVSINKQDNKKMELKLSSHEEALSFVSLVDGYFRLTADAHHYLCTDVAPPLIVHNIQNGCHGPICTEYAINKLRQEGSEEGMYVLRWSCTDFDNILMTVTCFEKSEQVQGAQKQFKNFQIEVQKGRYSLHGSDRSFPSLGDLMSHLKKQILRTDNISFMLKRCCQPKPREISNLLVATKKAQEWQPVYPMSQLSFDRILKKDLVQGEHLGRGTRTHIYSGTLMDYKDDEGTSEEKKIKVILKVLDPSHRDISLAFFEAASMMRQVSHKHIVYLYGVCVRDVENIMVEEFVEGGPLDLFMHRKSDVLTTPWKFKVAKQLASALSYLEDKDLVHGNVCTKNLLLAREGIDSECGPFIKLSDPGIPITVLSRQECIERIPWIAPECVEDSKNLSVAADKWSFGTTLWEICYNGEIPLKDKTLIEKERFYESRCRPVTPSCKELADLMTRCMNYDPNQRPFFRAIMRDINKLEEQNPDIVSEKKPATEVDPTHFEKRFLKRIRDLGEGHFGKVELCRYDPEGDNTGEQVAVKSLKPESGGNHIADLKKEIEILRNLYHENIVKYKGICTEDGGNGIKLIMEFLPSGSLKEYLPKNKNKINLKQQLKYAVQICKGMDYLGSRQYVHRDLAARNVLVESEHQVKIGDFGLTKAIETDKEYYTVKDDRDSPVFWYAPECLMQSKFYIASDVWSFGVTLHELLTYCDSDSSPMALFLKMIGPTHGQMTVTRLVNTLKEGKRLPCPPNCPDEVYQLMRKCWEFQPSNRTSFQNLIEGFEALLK

## Cc1cc(Nc2nccc3nc(-c4c(Cl)cc(C#N)cc4Cl)[nH]c23)ncn1
[1]
  Ratio Ki: 31
[2]
  Ki: 24 nM
[3]
  Ki: 58 nM

Source: ChEMBL document CHEMBL4043190 (Bioorg Med Chem Lett, 2017)
